ChEMBL document CHEMBL5523740, “Discovery of Potent and Selective c-Met Degraders for Hepatocellular Carcinoma Treatment” (J Med Chem, 2024)
Active and inactive are the calls of the source. The calls are words filed in the database; no cut-off is given here.

Experiments:
[1] = system: BaF3; assay: Antiproliferative activity against mouse BaF3 cells harboring TPR-MET fusion protein incubated for 72 hrs by CellTiter-Glo reagent based assay; format: functional, cell-based; settings: BaF3, 72 h
[2] = system: MHCC97H; assay: Induction of apoptosis in human MHCC97H cells assessed as viable cells at 3 nM incubated for 24 hrs by Annexin-V-FITC/PI staining based flow cytometry analysis (reference value: 86.3%); format: functional; settings: read-out: Activity
[3] = biological target: T1, Hepatocyte growth factor receptor (Homo sapiens, UniProt P08581); assay: Induction of c-Met degradation in human MHCC97H cells at 500 nM after 24 hrs in presence of MG-132 by Western blotting analysis; format: cell-based
[4] = AUC(0 to infinity) in Sprague-Dawley rat at 10 mg/kg, po by LC-MS/MS method; format: ADME, organism-based; settings: in vivo
[5] = system: MHCC97H; assay: Induction of apoptosis in human MHCC97H cells assessed as early apoptotic cells at 3 nM incubated for 24 hrs by Annexin-V-FITC/PI staining based flow cytometry analysis (reference value: 7.70%); format: functional
[6] = system: MHCC97H; assay: Induction of cell cycle arrest in human MHCC97H cells assessed as accumulation of cells at G1 phase at 100 nM incubated for 24 hrs by PI staining based flow cytometry analysis (reference value: 70.4%); format: functional
[7] = system: MHCC97H; assay: Induction of cell cycle arrest in human MHCC97H cells assessed as accumulation of cells at G2 phase at 3 nM incubated for 24 hrs by PI staining based flow cytometry analysis (reference value: 19.1%); format: functional
[8] = Toxicity in BALB/c mouse xenografted with human MHCC97H cells assessed as spleen lesions at 20 mg/kg, po qd for 22 days and measured every 2 days by H and E staining based assay; format: organism-based; settings: in vivo, 528 h, time 22 day
[9] = AUC(0 to infinity) in Sprague-Dawley rat at 1 mg/kg, iv by LC-MS/MS method; format: ADME, organism-based; settings: in vivo
[10] = Mean residence time (0 to infinity) in Sprague-Dawley rat at 10 mg/kg, po by LC-MS/MS method; format: ADME, organism-based; settings: in vivo
[11] = system: MHCC97H; assay: Antiproliferative activity against human MHCC97H cells incubated for 24 hrs by CCK8 assay; format: functional, cell-based
[12] = biological target: T1, Hepatocyte growth factor receptor; assay: Induction of c-Met degradation in human MHCC97H cells at 500 nM by Western blotting analysis; format: cell-based; settings: time 3-48 hrs, TDE = time-dependent effect
[13] = system: Mus musculus; assay: Downregulation of phosphorylated c-Met level in BALB/c mouse tumor xenografted with human MHCC97H cells at 20 mg/kg, po qd for 22 days and measured every 2 days by Western blotting analysis; format: functional, organism-based; settings: time 22.0 day
[14] = system: MHCC97H; assay: Induction of apoptosis in human MHCC97H cells assessed as necrotic cells at 3 nM incubated for 24 hrs by Annexin-V-FITC/PI staining based flow cytometry analysis (reference value: 1.77%); format: functional
[15] = Clearance in Sprague-Dawley rat at 1 mg/kg, iv by LC-MS/MS method; format: ADME, organism-based; settings: in vivo
[16] = system: MHCC97H; assay: Antitumor activity against human MHCC97H cells xenografted in BALB/c mouse assessed as reduction in tumor positive cells at 10 mg/kg, ip qd for 22 days and measured every 2 days by Ki67 staining based analysis; format: functional, organism-based; settings: time 22.0 day
[17] = Half-life in Sprague-Dawley rat at 10 mg/kg, po by LC-MS/MS method; format: ADME, organism-based; settings: in vivo
[18] = Cmax in Sprague-Dawley rat at 1 mg/kg, iv by LC-MS/MS method; format: ADME, organism-based; settings: in vivo
[19] = Half-life in Sprague-Dawley rat at 1 mg/kg, iv by LC-MS/MS method; format: ADME, organism-based; settings: in vivo
[20] = system: MHCC97H; assay: Inhibition of colony formation in human MHCC97H cells at 3 to 100 nM incubated for 2 weeks by crystal violet staining based assay; format: functional, cell-based; settings: dose 3-100 nM
[21] = system: MHCC97H; assay: Induction of apoptosis in human MHCC97H cells assessed as viable cells at 100 nM incubated for 24 hrs by Annexin-V-FITC/PI staining based flow cytometry analysis (reference value: 86.3%); format: functional; settings: read-out: Activity
[22] = system: BaF3; assay: Antiproliferative activity against mouse BaF3 cells harboring TPR-MET Y1230H mutant fusion protein incubated for 72 hrs by CellTiter-Glo reagent based assay; format: functional, cell-based; settings: BaF3, 72 h
[23] = system: MHCC97H; assay: Induction of cell cycle arrest in human MHCC97H cells assessed as accumulation of cells at G2 phase at 10 nM incubated for 24 hrs by PI staining based flow cytometry analysis (reference value: 19.1%); format: functional
[24] = biological target: T1, Hepatocyte growth factor receptor; assay: Induction of c-Met degradation in human MHCC97H cells at 1 uM incubated for 24 hrs by Western blotting analysis; format: cell-based
[25] = Tmax in Sprague-Dawley rat at 10 mg/kg, po by LC-MS/MS method; format: ADME, organism-based; settings: in vivo
[26] = Toxicity in BALB/c mouse xenografted with human MHCC97H cells assessed as heart lesions at 20 mg/kg, po qd for 22 days and measured every 2 days by H and E staining based assay; format: organism-based; settings: in vivo, 528 h, time 22 day
[27] = system: Mus musculus; assay: Downregulation of c-Met protein level in BALB/c mouse tumor xenografted with human MHCC97H cells at 10 mg/kg, ip qd for 22 days and measured every 2 days by Western blotting analysis; format: functional, organism-based; settings: time 22.0 day
[28] = Toxicity in BALB/c mouse xenografted with human MHCC97H cells assessed as kidney lesions at 10 mg/kg, ip qd for 22 days and measured every 2 days by H and E staining based assay; format: organism-based; settings: in vivo, 528 h, time 22 day
[29] = biological target: T1, Hepatocyte growth factor receptor; assay: Induction of c-Met degradation in human MHCC97H cells at 500 nM after 3 to 24 hrs by Western blotting analysis; format: cell-based; settings: time 3-24 hrs
[30] = Toxicity in BALB/c mouse xenografted with human MHCC97H cells assessed as liver lesions at 20 mg/kg, po qd for 22 days and measured every 2 days by H and E staining based assay; format: organism-based; settings: in vivo, 528 h, time 22 day
[31] = system: MHCC97H; assay: Induction of apoptosis in human MHCC97H cells assessed as early apoptotic cells at 10 nM incubated for 24 hrs by Annexin-V-FITC/PI staining based flow cytometry analysis (reference value: 7.70%); format: functional
[32] = biological target: T1, Hepatocyte growth factor receptor; assay: Induction of c-Met degradation in human MHCC97H cells assessed as downregulation of c-Met protein level at 500 nM after 24 hrs by Western blotting analysis; format: cell-based
[33] = Toxicity in BALB/c mouse xenografted with human MHCC97H cells assessed as reduction in body weight at 20 mg/kg, po qd for 22 days and measured every 2 days; format: organism-based; settings: in vivo, 528 h, time 22 day
[34] = system: MHCC97H; assay: Induction of apoptosis in human MHCC97H cells assessed as late apoptotic cells at 100 nM incubated for 24 hrs by Annexin-V-FITC/PI staining based flow cytometry analysis (reference value: 4.24%); format: functional
[35] = Toxicity in BALB/c mouse xenografted with human MHCC97H cells assessed as kidney lesions at 20 mg/kg, po qd for 22 days and measured every 2 days by H and E staining based assay; format: organism-based; settings: in vivo, 528 h, time 22 day
[36] = system: MHCC97H; assay: Induction of apoptosis in human MHCC97H cells assessed as early apoptotic cells at 100 nM incubated for 24 hrs by Annexin-V-FITC/PI staining based flow cytometry analysis (reference value: 7.70%); format: functional
[37] = Toxicity in BALB/c mouse xenografted with human MHCC97H cells assessed as liver lesions at 10 mg/kg, ip qd for 22 days and measured every 2 days by H and E staining based assay; format: organism-based; settings: in vivo, 528 h, time 22 day

T1 sequence (P08581 whole entry): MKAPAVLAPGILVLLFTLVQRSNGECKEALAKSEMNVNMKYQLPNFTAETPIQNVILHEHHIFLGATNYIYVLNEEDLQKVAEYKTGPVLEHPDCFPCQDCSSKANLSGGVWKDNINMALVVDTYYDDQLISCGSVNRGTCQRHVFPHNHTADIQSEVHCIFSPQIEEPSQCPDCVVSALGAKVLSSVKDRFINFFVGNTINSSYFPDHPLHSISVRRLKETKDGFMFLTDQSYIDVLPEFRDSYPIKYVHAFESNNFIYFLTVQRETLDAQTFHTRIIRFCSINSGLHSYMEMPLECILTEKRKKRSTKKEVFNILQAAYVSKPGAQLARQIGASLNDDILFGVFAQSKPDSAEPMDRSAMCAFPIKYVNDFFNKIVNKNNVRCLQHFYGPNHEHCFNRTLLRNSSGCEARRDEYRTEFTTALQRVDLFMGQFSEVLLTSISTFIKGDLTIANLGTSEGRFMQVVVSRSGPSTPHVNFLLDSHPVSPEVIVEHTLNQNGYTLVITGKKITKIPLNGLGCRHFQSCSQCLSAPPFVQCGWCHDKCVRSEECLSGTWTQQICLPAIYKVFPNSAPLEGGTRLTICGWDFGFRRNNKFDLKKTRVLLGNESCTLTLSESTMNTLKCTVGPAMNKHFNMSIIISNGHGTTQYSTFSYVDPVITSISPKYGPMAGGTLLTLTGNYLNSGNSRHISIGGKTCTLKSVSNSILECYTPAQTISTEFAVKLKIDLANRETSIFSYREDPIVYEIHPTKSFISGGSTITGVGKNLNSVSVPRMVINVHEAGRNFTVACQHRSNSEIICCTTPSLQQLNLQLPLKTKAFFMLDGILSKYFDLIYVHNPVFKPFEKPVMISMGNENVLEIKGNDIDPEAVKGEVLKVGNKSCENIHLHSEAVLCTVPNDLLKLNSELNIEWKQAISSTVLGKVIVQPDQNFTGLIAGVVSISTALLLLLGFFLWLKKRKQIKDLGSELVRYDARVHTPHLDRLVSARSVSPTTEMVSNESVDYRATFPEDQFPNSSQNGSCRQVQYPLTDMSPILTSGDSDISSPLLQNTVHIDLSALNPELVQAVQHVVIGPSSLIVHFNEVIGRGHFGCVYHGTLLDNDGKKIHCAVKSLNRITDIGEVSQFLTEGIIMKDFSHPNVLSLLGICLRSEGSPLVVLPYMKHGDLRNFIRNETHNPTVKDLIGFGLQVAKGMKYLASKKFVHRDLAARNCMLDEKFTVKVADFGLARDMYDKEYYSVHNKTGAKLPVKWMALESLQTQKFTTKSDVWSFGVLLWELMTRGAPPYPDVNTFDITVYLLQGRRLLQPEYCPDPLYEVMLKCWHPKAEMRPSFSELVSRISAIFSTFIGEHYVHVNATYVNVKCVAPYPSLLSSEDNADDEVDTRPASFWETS

IC50 [1]: 6.2 nM
Activity [3]: inactive
AUC(0-inf) [4]: 74.5 ng·h/mL
AUC(0-inf) [9]: 994 ng·h/mL
MRT inf [10]: 3.73 h
Activity [12]: Tde
clearance [15]: 17.5 mL/min/kg
half-life [17]: 2.57 h
Cmax [18]: 1630 ng/mL
half-life [19]: 2.5 h
IC50 [22]: 378 nM
Activity [24]: 84.8%
Tmax [25]: 1.17 h
Activity [29]: Active
Activity [32]: Active
SMILES: N#Cc1cccc(-c2ccc(=O)n(Cc3cccc(-c4ncc(OCC5CCN(CCCCCC(=O)NCC67CC8CC(CC(C8)C6)C7)CC5)cn4)c3)n2)c1
viability at 0.003 µM [2]: 79.5%
Activity [5]: 16%
Activity [6]: 79.1%
Activity [7]: 15.9%
Activity [8]: Non-Toxic
IC50 [11]: 2.62 nM
Activity [13]: Active
Activity [14]: 0.74%
Activity [16]: Active
inhibition [20]: Active
viability at 0.1 µM [21]: 52.7%
Activity [23]: 14.3%
Activity [26]: Non-Toxic
Activity [27]: Active
Activity [28]: Non-Toxic
Activity [30]: Non-Toxic
Activity [31]: 19.7%
Activity [33]: Non-Toxic
Activity [34]: 6.06%
Activity [35]: Non-Toxic
Activity [36]: 39.9%
Activity [37]: Non-Toxic
